Source: patent US9834535B2, “Sulfamate derivative compounds for use in treating or alleviating pain” (Bio-Pharm Solutions Co., Ltd., priority 2013, dated 2017)

System: Vincristine-induced pain model
Test: Antiallodynic activity on vincristine-induced pain model (von Frey)
Assay type: in vivo, Sprague-Dawley rats
Conditions: ip, rat, intraperitoneal, 0.5 h
Method: Male, Sprague-Dawley rats (300-320 g, Nara Bio, Korea) were habituated for 1 week before surgery and allowed free access to food and water throughout the experimentation. Room temperature and humidity were maintained at 24±2° C. and 50±10%, respectively.
Vincristine was established by the procedure of Natsuko et al. (2001) with minor modifications. Vincristine was intravenously infused continuously for 14 clays using a mini-osmotic pump as follows. Vincristine sulfate solution (Hospira, Australia) was diluted with 0.9% saline to 30 ug/kg, final close. The pumps (Alzet Model 2002, USA) were filled with the vincristine solution and primed by incubation at 37° C. for 4 h before the infusion. […]
Tactile sensitivity (Mechanical allodynia) was evaluated using von Frey monofilaments before and after treatment, and animals were used withdrawal threshold value was less than 4 g. […] The tactile sensitivity for ipsilateral hind paw was measured using the up-and-down method (Dixon, 1980) with seven von Frey monofilaments (0.4, 1, 2, 4, 6, 8, and 15 g) to 3 trials. […] The 50% paw withdrawal threshold for each paw was calculated using the following formula: [Xth] log=[vFr] log+ky where [vFr] is the force of the last von Frey used, k=0.2249 which is the average interval (in log units) between the von Frey monofilaments, and y is a value that depends upon the pattern of withdrawal responses (Dixon, 1980). […]

SMILES: CC1(C)O[C@@H](COS(N)(=O)=O)[C@H](c2ccccc2Cl)O1 [Example 2, ((4S,5S)-5-(2-chlorophenyl)-2,2-dimethyl-1,3-dioxolan-4-yl)methyl sulfamate]
- ED50: 1 mg/kg
